Assay [1] concerns Klebsiella pneumoniae (Kp). The assay can be described thus: Minimum inhibitory concentration (MIC), bacteria in nutrient agar. The class given is cell-based, Klebsiella pneumoniae ATCC 8308. Conditions: 48 hours. As for the experimental part:
(§1) The minimum inhibitory concentration (MIC) for the compounds listed in Table I is determined for 9 bacteria, using nutrient agar, and 7 yeast and fungi, using malt yeast agar. A one percent solution of the test compound is prepared in a mixture of acetone and water.
(§2) Nutrient agar is prepared at pH 6.8, representing a neutral medium, and at pH 8.2, representing an alkaline medium. The nutrient agars are prepared by adding 23 g of nutrient agar to one liter of deionized water. In addition, the alkaline medium is prepared by adjusting a 0.04M solution of N-[tris-(hydroxymethyl)methyl]glycine buffered deionized water with concentrated sodium hydroxide to a pH of 8.5.
(§3) The test tubes containing the agar are cooled in a water bath until the temperature of the agar is 48° C. Then, an appropriate amount of the one percent solution of the test compound is added (except in the controls where no compound is added) to the respective test tubes so that the final concentrations are 500, 250, 100, 50, 25, 10, 5, 2.5, 1.0 and zero parts per million of the test compound in the agar, thus having a known concentration of test compound dispersed therein. The contents of the test tubes are then transferred to respective petri plates. After drying for 24 hours, the petri plates containing nutrient agar are inoculated with bacteria and those containing malt yeast agar are inoculated with yeast and fungi.
(§4) The inoculation with bacteria is accomplished by using the following procedure. Twenty-four hour-cultures of each of the bacteria are prepared by incubating the respective bacteria in tubes containing nutrient broth for 24 hours at 30° C. in a shaker. Dilutions of each of the 24 hour-cultures are made so that nine separate suspensions (one for each of the nine test bacteria) are made, each containing 10^8 colony forming units (CFU) per mL of suspension of a particular bacteria. Aliquots of 0.3 mL of each of the bacterial suspensions are used to fill the individual wells of Steer's Replicator. For each microbial suspension, 0.3 mL was used to fill three wells (i.e., three wells of 0.3 mL each) so that for the nine different bacteria, 27 wells are filled. The Steer's Replicator is then used to inoculate both the neutral and alkaline pH nutrient agar petri plates.
(§5) The inoculated petri plates are incubated at 30° C. for 48 hours and then read to determine if the test compound which is incorporated into the agar prevented growth of the respective bacteria.
(§6) Table II lists the bacteria, yeast and fungi used in the MIC test described above along with their respective American Type Culture Collection (ATCC) identification numbers.
(§7) In Tables III and IV, the MIC values of the compounds described in Table I as compared to the MIC of a standard commercial preservative (with 1-(3-chloroallyl)-3,5,7-triaza-1-azoniaadamantane chloride as the active agent and referred to in Tables III and IV as "STANDARD I") are set forth for the bacteria organisms and yeast/fungi organisms which are listed in Table II.

For another assay, the system named is Trichoderma viride (Tv). The assay can be described thus: Minimum inhibitory concentration (MIC), yeast/fungi in malt yeast agar. The format is cell-based, Trichoderma viride ATCC 8678. The conditions noted are these: 30° C., 72 hours for fungi. As for the experimental part:
as §1
(§8) Malt yeast agar is prepared by adding 3 g yeast extract and 45 g malt agar per liter of deionized water. The specific agar is dispensed in 30 mL aliquots into 25×200 mm test tubes, capped and autoclaved for 15 minutes at 115° C.
as §3
(§9) The inoculation with the yeast and fungi is accomplished as follows. Cultures of yeast and fungi are incubated for seven days on malt yeast agar at 30° C. These cultures are used to prepare suspensions by the following procedure. A suspension of each organism is prepared by adding 10 mL of sterile saline and 10 microliters of octylphenoxy polyethoxy ethanol to the agar slant of yeast or fungi. The sterile saline/octylphenoxy polyethoxy ethanol solution is then agitated with a sterile swab to suspend the microorganism grown on the slant. Each resulting suspension is diluted into sterile saline (1 part suspension to 9 parts sterile saline). Aliquots of these dilutions are placed in individual wells of Steer's Replicator and petri plates inoculated as previously described. The petri plates are incubated at 30° C. and read after 48 hours for yeast and 72 hours for fungi.
as §6, §7

Assay [2] relates to Enterobacter aerogenes (Ea). The assay is described as follows: Minimum inhibitory concentration (MIC), bacteria in nutrient agar. The format is cell-based, Enterobacter aerogenes ATCC 13048. The conditions noted are these: Klebsiella aerogenes, 48 hours. Here is the method:
as §1, §2, §3, §4, §5, §6, §7

Another assay deals with Fusarium oxysporum (Fo). The assay can be described thus: Minimum inhibitory concentration (MIC), yeast/fungi in malt yeast agar. The format is cell-based, Fusarium oxysporum ATCC 48112. Conditions: 30° C., 72 hours for fungi. As for the experimental part: as §1, §8, §3, §9, §6, §7
The subject of assay [3] is Penicillium chrysogenum (Pc). Described as above. The format is cell-based, Penicillium chrysogenum ATCC 9480. Conditions: 30° C., 72 hours for fungi. Here is the method:
as §1, §8, §3, §9, §6, §7

For the next assay, the system named is Candida albicans (Ca). The assay is described as above. The class given is cell-based, Candida albicans ATCC 10231. Conditions: 30° C., 48 hours for yeast. Here is the method: as §1, §8, §3, §9, §6, §7
Assay [4] has as its system Aureobasidium pullulan (Ap). Described as above. The format is cell-based, Aureobasidium pullulan ATCC 16622. Conditions: 30° C., read after 48 hours for yeast and 72 hours for fungi. As for the experimental part:
as §1, §8, §3, §9, §6, §7

Assay [5] has as its system Staphylococcus aureus (Sa). The assay is described as follows: Minimum inhibitory concentration (MIC), bacteria in nutrient agar. Conditions: 48 hours. The format is cell-based, Staphylococcus aureus ATCC 6538. Here is the method:
as §1, §2, §3, §4, §5, §6, §7

The next assay has as its system marine organisms. The assay can be described thus: Marine antifouling activity, coated test panels exposed to marine environment. The conditions noted are these: scale 10 (completely free of growth) to 0 (completely covered); for Marine Antifouling Rating, 6 Week Test, Bottom Panel / Marine Antifouling Rating, 6 Week Test, Top Panel: 6 weeks; for Marine Antifouling Rating, 6 Week Test, Bottom Panel / Marine Antifouling Rating, 15 Week Test, Bottom Panel: bottom panel (black background); for Marine Antifouling Rating, 6 Week Test, Top Panel / Marine Antifouling Rating, 15 Week Test, Top Panel: top panel (white background); for Marine Antifouling Rating, 15 Week Test, Bottom Panel / Marine Antifouling Rating, 15 Week Test, Top Panel: 15 weeks. As for the experimental part:
Test panels are prepared from clear, rigid polyvinyl chloride film that is 0.381×10^-3 m thick and has one textured surface. The test panels are 0.1524 m by 0.1524 m squares that have 0.00635 m holes punched at corners on 0.127 m centers. A 0.102 square template, with a 0.067 m diameter hole at the center, is attached to the center of the textured surface of the test panels.
A candidate marine antifoulant compound (1.0 g) is stirred into a resinous latex binder (9.0 g). A portion of the compound/binder mixture (1.5 g) is added to the center of the test panel and uniformly spread over the circular area inside the template.
Water is added dropwise as needed to properly spread the compound/binder mixture. The template prevents the compound/binder mixture from spreading beyond the uncovered area. […] The template is then removed. The test panel is then allowed to dry for 8 to 12 hours at room temperature.
Two test panels are prepared for each candidate marine antifoulant compound. Two control test panels are also prepared by only treating with the resinous latex binder. One test panel of each candidate marine […] compound is attached over a white background to the topside of an exposure support apparatus. The second test panel is attached over a black background to the underside of the exposure support apparatus. The exposure support apparatus is placed horizontally 0.0254 m under a marine surface with the white background topside facing up.
After being removed from the exposure support apparatus, each test panel is inspected and rated for marine organism growth on both the treated and untreated areas of the test panel. The marine organisms present on the treated and untreated areas are noted. The presence of algae spores and bacterial slime are noted but not included in rating each test panel. The test panels are rated on a scale from 10 (representing completely free of marine organism growth) to 0 (representing completely covered with marine organism growth).
In addition, test panels were prepared using tributyl tin oxide, a known marine antifouling compound.

≈ marks a conversion by molar mass, not a printed value.

On to `N#CSCSc1nnnn1-c1cccc(Cl)c1` [II, 1-(3-Chlorophenyl)-5-thiomethylthiocyanato-1H-tetrazole], for which the MIC in assay [1] (nutrient agar pH 6.8, 30° C.) is 250 µg/mL (≈ 881 µM); in assay [1] (nutrient agar pH 8.2, 30° C.) it was 250 µg/mL (≈ 881 µM); with Trichoderma viride (Tv), 25 µg/mL (≈ 88.1 µM); in [2] (nutrient agar pH 6.8, 30° C.), 500 µg/mL (≈ 1760 µM); in assay [2] (nutrient agar pH 8.2, 30° C.) it was 500 µg/mL (≈ 1760 µM); in the assay on Fusarium oxysporum (Fo), below 10 µg/mL. The MIC in assay [3] was below 10 µg/mL; against Candida albicans (Ca) it was below 10 µg/mL; in assay [4], below 10 µg/mL; in [5] (nutrient agar pH 6.8, 30° C.), 250 µg/mL (≈ 881 µM); in assay [5] (nutrient agar pH 8.2, 30° C.) it was 100 µg/mL (≈ 352 µM). In the assay on marine organisms, the “Marine Antifouling Rating, 6 Week Test, Bottom Panel” value came to 10. In addition, the “Marine Antifouling Rating, 6 Week Test, Top Panel” value with marine organisms is 9. Also, the “Marine Antifouling Rating, 15 Week Test, Bottom Panel” value with marine organisms is reported as 6. Moreover, the “Marine Antifouling Rating, 15 Week Test, Top Panel” value in the assay on marine organisms is given as 9.

As to `N#CSCSc1nnnn1-c1ccc(Cl)cc1` [III, 1-(4-Chlorophenyl)-5-thiomethylthiocyanato-1H-tetrazole], the MIC in [1] (nutrient agar pH 6.8, 30° C.) is 25 µg/mL (≈ 88.1 µM); in assay [1] (nutrient agar pH 8.2, 30° C.), 50 µg/mL (≈ 176 µM); in the assay on Trichoderma viride (Tv) it was 5 µg/mL (≈ 17.6 µM); in [2] (nutrient agar pH 6.8, 30° C.), 25 µg/mL (≈ 88.1 µM); in assay [2] (nutrient agar pH 8.2, 30° C.), 250 µg/mL (≈ 881 µM); in the assay on Fusarium oxysporum (Fo), 2.5 µg/mL (≈ 8.81 µM). Further, the MIC in assay [3] is below 1 µg/mL; in the assay with Candida albicans (Ca), 5 µg/mL (≈ 17.6 µM); in assay [4], 2.5 µg/mL (≈ 8.81 µM); in assay [5] (nutrient agar pH 6.8, 30° C.), 25 µg/mL (≈ 88.1 µM); in [5] (nutrient agar pH 8.2, 30° C.), 50 µg/mL (≈ 176 µM). Also, in the assay with marine organisms, the “Marine Antifouling Rating, 6 Week Test, Bottom Panel” value amounted to 9. In addition, in the assay on marine organisms, the “Marine Antifouling Rating, 6 Week Test, Top Panel” value stood at 9. Further, in the assay on marine organisms, the “Marine Antifouling Rating, 15 Week Test, Bottom Panel” value is recorded as 1. Besides, the “Marine Antifouling Rating, 15 Week Test, Top Panel” value in the assay on marine organisms is listed as 4.

For the molecule `Cc1cccc(-n2nnnc2SCSC#N)c1` [VI, 1-(3-Methylphenyl)-5-thiomethylthiocyanato-1H-tetrazole], the MIC in assay [1] (nutrient agar pH 6.8, 30° C.) is 250 µg/mL (≈ 949 µM); in assay [1] (nutrient agar pH 8.2, 30° C.), 100 µg/mL (≈ 380 µM); with Trichoderma viride (Tv) it was 25 µg/mL (≈ 94.9 µM); in [2] (nutrient agar pH 6.8, 30° C.), 500 µg/mL (≈ 1900 µM); in [2] (nutrient agar pH 8.2, 30° C.), 500 µg/mL (≈ 1900 µM); with Fusarium oxysporum (Fo), below 1 µg/mL. The MIC was below 1 µg/mL in [3]; 5 µg/mL (≈ 19 µM) against Candida albicans (Ca); below 1 µg/mL in assay [4]; 25 µg/mL (≈ 94.9 µM) in [5] (nutrient agar pH 6.8, 30° C.); 50 µg/mL (≈ 190 µM) in assay [5] (nutrient agar pH 8.2, 30° C.). Moreover, in the assay on marine organisms, the “Marine Antifouling Rating, 6 Week Test, Bottom Panel” value is given as 10. Besides, in the assay with marine organisms, the “Marine Antifouling Rating, 6 Week Test, Top Panel” value came out at 9. Also, the “Marine Antifouling Rating, 15 Week Test, Bottom Panel” value in the assay on marine organisms is reported as 9. In addition, the “Marine Antifouling Rating, 15 Week Test, Top Panel” value in the assay on marine organisms worked out at 8.

In the case of `N#CSCSc1nnnn1C1CCCCC1` [X, 1-(Cyclohexyl)-5-thiomethylthiocyanato-1H-tetrazole], the MIC in assay [1] (nutrient agar pH 6.8, 30° C.) amounted to 250 µg/mL (≈ 979 µM); in [1] (nutrient agar pH 8.2, 30° C.), 100 µg/mL (≈ 392 µM); in the assay on Trichoderma viride (Tv) it was 50 µg/mL (≈ 196 µM); in [2] (nutrient agar pH 6.8, 30° C.), 500 µg/mL (≈ 1960 µM); in [2] (nutrient agar pH 8.2, 30° C.), 500 µg/mL (≈ 1960 µM); against Fusarium oxysporum (Fo) it was 5 µg/mL (≈ 19.6 µM). In addition, the MIC in assay [3] is below 1 µg/mL; with Candida albicans (Ca), 50 µg/mL (≈ 196 µM); in assay [4], below 1 µg/mL; in [5] (nutrient agar pH 6.8, 30° C.) it was 25 µg/mL (≈ 97.9 µM); in assay [5] (nutrient agar pH 8.2, 30° C.), 50 µg/mL (≈ 196 µM). Further, the “Marine Antifouling Rating, 6 Week Test, Bottom Panel” value in the assay on marine organisms is listed as 10. Besides, the “Marine Antifouling Rating, 6 Week Test, Top Panel” value in the assay on marine organisms was 9. For the same molecule, the “Marine Antifouling Rating, 15 Week Test, Bottom Panel” value with marine organisms was 8. Further, the “Marine Antifouling Rating, 15 Week Test, Top Panel” value with marine organisms is on record as 4.

One may read the MIC as the least concentration at which growth counts as inhibited. A low value points to inhibition by little substance.
